Source: the supplement of paper PMC10307832

How the values were obtained:
Assay in all cases: relative viability (nuclei count vs DMSO), 5 days (fraction); higher = more cells survive
HCC-44 = system: HCC-44
Outline: (§1)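 Values are medians from duplicate plates. Each reflects relative viability, defined as the nuclei count of treated wells over that of vehicle wells. Lung cancer cell lines in 1536-well plates were pin-tool dosed one day after seeding with one drug alone or with a fixed anchor-drug dose plus five library-drug doses (not always all listed) in √10 steps, then fixed, stained and imaged at 4× after 5 days.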

SK-MES-1 = system: SK-MES-1
Outline: as §1

NCI-H441 = system: NCI-H441
Outline: as §1

201T = system: 201T
Outline: as §1

NCI-H1975 = system: NCI-H1975
Outline: as §1

EKVX = system: EKVX
Outline: as §1

LK-2 = system: LK-2
Outline: as §1

COR-L 105 = system: COR-L 105
Outline: as §1

NCI-H1437 = system: NCI-H1437
Outline: as §1

NCI-H596 = system: NCI-H596
Outline: as §1

NCI-H650 = system: NCI-H650
Outline: as §1

SW 900 = system: SW 900
Outline: as §1

NCI-H838 = system: NCI-H838
Outline: as §1

HCC-827 = system: HCC-827
Outline: as §1

HCC-15 = system: HCC-15
Outline: as §1

NCI-H1792 = system: NCI-H1792
Outline: as §1

NCI-H23 = system: NCI-H23
Outline: as §1

A-427 = system: A-427
Outline: as §1

BEN = system: BEN
Outline: as §1

HARA = system: HARA
Outline: as §1

NCI-H1666 = system: NCI-H1666
Outline: as §1

COR-L23 = system: COR-L23
Outline: as §1

NCI-H358 = system: NCI-H358
Outline: as §1

NC(=O)Nc1cc(-c2cccc(F)c2)sc1C(=O)N[C@H]1CCCNC1 [AZD7762] + O=C(c1cc(Cc2n[nH]c(=O)c3ccccc23)ccc1F)N1CCN(C(=O)C2CC2)CC1 [Olaparib] (partner 8 µM)
relative viability (HCC-44; first compound 0.01 µM): 0.986
relative viability (HCC-44; first compound 0.03162 µM): 0.922
relative viability (HCC-44; first compound 0.1 µM): 1.01
relative viability (HCC-44; first compound 0.3162 µM): 0.964
relative viability (HCC-44; first compound 1 µM): 0.954
relative viability (SK-MES-1; first compound 0.01 µM): 0.831
relative viability (SK-MES-1; first compound 0.03162 µM): 0.828
relative viability (SK-MES-1; first compound 0.1 µM): 0.506
relative viability (SK-MES-1; first compound 0.3162 µM): 0.247
relative viability (SK-MES-1; first compound 1 µM): 0.189
relative viability (NCI-H441; first compound 0.01 µM): 0.707
relative viability (NCI-H441; first compound 0.03162 µM): 0.795
relative viability (NCI-H441; first compound 0.1 µM): 0.675
relative viability (NCI-H441; first compound 0.3162 µM): 0.555
relative viability (NCI-H441; first compound 1 µM): 0.287
relative viability (201T; first compound 0.01 µM): 0.821
relative viability (201T; first compound 0.03162 µM): 0.854
relative viability (201T; first compound 0.1 µM): 0.885
relative viability (201T; first compound 0.3162 µM): 0.566
relative viability (201T; first compound 1 µM): 0.475
relative viability (NCI-H1975; first compound 0.01 µM): 0.767
relative viability (NCI-H1975; first compound 0.03162 µM): 0.682
relative viability (NCI-H1975; first compound 0.1 µM): 0.638
relative viability (NCI-H1975; first compound 0.3162 µM): 0.538
relative viability (NCI-H1975; first compound 1 µM): 0.401
relative viability (EKVX; first compound 0.01 µM): 0.82
relative viability (EKVX; first compound 0.03162 µM): 1.04
relative viability (EKVX; first compound 0.1 µM): 0.62
relative viability (EKVX; first compound 0.3162 µM): 0.844
relative viability (EKVX; first compound 1 µM): 0.393
relative viability (LK-2; first compound 0.01 µM): 0.789
relative viability (LK-2; first compound 0.03162 µM): 1
relative viability (LK-2; first compound 0.1 µM): 0.729
relative viability (LK-2; first compound 0.3162 µM): 0.623
relative viability (LK-2; first compound 1 µM): 0.435
relative viability (COR-L 105; first compound 0.01 µM): 0.699
relative viability (COR-L 105; first compound 0.03162 µM): 0.643
relative viability (COR-L 105; first compound 0.1 µM): 0.529
relative viability (COR-L 105; first compound 0.3162 µM): 0.542
relative viability (COR-L 105; first compound 1 µM): 0.516
relative viability (NCI-H1437; first compound 0.01 µM): 0.696
relative viability (NCI-H1437; first compound 0.03162 µM): 0.648
relative viability (NCI-H1437; first compound 0.1 µM): 0.621
relative viability (NCI-H1437; first compound 0.3162 µM): 0.612
relative viability (NCI-H1437; first compound 1 µM): 0.433
relative viability (NCI-H596; first compound 0.01 µM): 0.723
relative viability (NCI-H596; first compound 0.03162 µM): 0.631
relative viability (NCI-H596; first compound 0.1 µM): 0.609
relative viability (NCI-H596; first compound 0.3162 µM): 0.552
relative viability (NCI-H596; first compound 1 µM): 0.478
relative viability (NCI-H650; first compound 0.01 µM): 0.417
relative viability (NCI-H650; first compound 0.03162 µM): 0.49
relative viability (NCI-H650; first compound 0.1 µM): 0.494
relative viability (NCI-H650; first compound 0.3162 µM): 0.446
relative viability (NCI-H650; first compound 1 µM): 0.337
relative viability (SW 900; first compound 0.01 µM): 0.887
relative viability (SW 900; first compound 0.03162 µM): 0.835
relative viability (SW 900; first compound 0.1 µM): 0.727
relative viability (SW 900; first compound 0.3162 µM): 0.949
relative viability (SW 900; first compound 1 µM): 0.47
relative viability (NCI-H838; first compound 0.01 µM): 0.86
relative viability (NCI-H838; first compound 0.03162 µM): 0.774
relative viability (NCI-H838; first compound 0.1 µM): 0.744
relative viability (NCI-H838; first compound 0.3162 µM): 0.493
relative viability (NCI-H838; first compound 1 µM): 0.169
relative viability (HCC-827; first compound 0.01 µM): 0.654
relative viability (HCC-827; first compound 0.03162 µM): 0.678
relative viability (HCC-827; first compound 0.1 µM): 0.64
relative viability (HCC-827; first compound 0.3162 µM): 0.267
relative viability (HCC-827; first compound 1 µM): 0.288
relative viability (HCC-15; first compound 0.01 µM): 0.824
relative viability (HCC-15; first compound 0.03162 µM): 0.948
relative viability (HCC-15; first compound 0.1 µM): 0.898
relative viability (HCC-15; first compound 0.3162 µM): 1.04
relative viability (HCC-15; first compound 1 µM): 0.983
relative viability (NCI-H1792; first compound 0.01 µM): 0.336
relative viability (NCI-H1792; first compound 0.03162 µM): 0.421
relative viability (NCI-H1792; first compound 0.1 µM): 0.364
relative viability (NCI-H1792; first compound 0.3162 µM): 0.352
relative viability (NCI-H1792; first compound 1 µM): 0.221
relative viability (NCI-H23; first compound 0.01 µM): 0.311
relative viability (NCI-H23; first compound 0.03162 µM): 0.287
relative viability (NCI-H23; first compound 0.1 µM): 0.255
relative viability (NCI-H23; first compound 0.3162 µM): 0.222
relative viability (NCI-H23; first compound 1 µM): 0.168
relative viability (A-427; first compound 0.01 µM): 0.865
relative viability (A-427; first compound 0.03162 µM): 0.767
relative viability (A-427; first compound 0.1 µM): 0.78
relative viability (A-427; first compound 0.3162 µM): 0.733
relative viability (A-427; first compound 1 µM): 0.379
relative viability (BEN; first compound 0.01 µM): 1.05
relative viability (BEN; first compound 0.03162 µM): 1.04
relative viability (BEN; first compound 0.1 µM): 0.966
relative viability (BEN; first compound 0.3162 µM): 1.01
relative viability (BEN; first compound 1 µM): 0.658
relative viability (HARA; first compound 0.01 µM): 0.768
relative viability (HARA; first compound 0.03162 µM): 0.759
relative viability (HARA; first compound 0.1 µM): 0.507
relative viability (HARA; first compound 0.3162 µM): 0.301
relative viability (HARA; first compound 1 µM): 0.229
relative viability (NCI-H1666; first compound 0.01 µM): 0.85
relative viability (NCI-H1666; first compound 0.03162 µM): 0.973
relative viability (NCI-H1666; first compound 0.1 µM): 1.06
relative viability (NCI-H1666; first compound 0.3162 µM): 0.968
relative viability (NCI-H1666; first compound 1 µM): 0.814
relative viability (COR-L23; first compound 0.01 µM): 0.405
relative viability (COR-L23; first compound 0.03162 µM): 0.248
relative viability (COR-L23; first compound 0.1 µM): 0.215
relative viability (COR-L23; first compound 0.3162 µM): 0.166
relative viability (COR-L23; first compound 1 µM): 0.0843
relative viability (NCI-H358; first compound 0.01 µM): 0.872
relative viability (NCI-H358; first compound 0.03162 µM): 0.64
relative viability (NCI-H358; first compound 0.1 µM): 0.715
relative viability (NCI-H358; first compound 0.3162 µM): 0.408
relative viability (NCI-H358; first compound 1 µM): 0.212
